Earlier results on three molecules are cited in paper PMC4621921 (Oncotarget, 2015).

Read-outs that look alike come from different tables or passages of the source.

In one series the test system is prostate cancer. Also on record: method as in PMID 23169517. Particulars: phase 2, prostate cancer.
Series [1] concerns castration-resistant prostate cancer. Also on record: method as in earlier work. Particulars: phase 3, castration-resistant prostate cancer; no statistically significant improvement.
On the set-up of series [2]: method as in PMID 23169517, PMID 24002501. Particulars: clinical studies.
The conditions of series [3]: in vivo.

As for `COc1cc2nccc(Oc3ccc(NC(=O)C4(C(=O)Nc5ccc(F)cc5)CC4)cc3)c2cc1OC` [cabozantinib], in the series with prostate cancer, the “evaluable patients with regression in soft tissue lesions” value is listed as 72%. The PFS in the series with prostate cancer (versus 5.9 weeks with placebo) is given as 23.9 weeks. Further, the “median OS” value in series [1] is 11 months. In addition, the “common AEs” value in series [2] was “fatigue, decreased appetite, and diarrhea”.

Regarding `COc1cc2c(Oc3ccc(NC(=O)C4(C(=O)Nc5ccc(F)cc5)CC4)cc3F)ccnc2cc1OCCCN1CCOCC1` [foretinib], in series [3], the “common AEs” value is “fatigue, hypertension, and gastrointestinal toxicities”.

`C[C@]12C=CC(=O)C=C1CC[C@@H]1[C@@H]2C(=O)C[C@@]2(C)[C@H]1CC[C@]2(O)C(=O)CO` [prednisone]: in series [1], the “median OS” value is recorded as 9.8 months.
